According to the NIST ThermoML archive (doi:10.1016/j.fluid.2009.02.007):
Numbers after ± are expanded uncertainties.

Test: osmotic coefficient (dimensionless); mn = molality of the nth substance listed, in mol/kg
Conditions: 101 kPa, Liquid, Vapor pressure osmometry

CCCCn1cc[n+](C)c1.F[B-](F)(F)F [1-butyl-3-methylimidazolium tetrafluoroborate] + O
osmotic coefficient
Conditions	298.15 K	308.15 K	318.15 K	328.15 K
m1 = 0.012	1.023 ± 0.001	1.009 ± 0.001	1.006 ± 0.001	0.994 ± 0.001
m1 = 0.0223	0.994 ± 0.001	0.974 ± 0.001	0.986 ± 0.001	0.978 ± 0.001
m1 = 0.0369	0.987 ± 0.001	0.959 ± 0.002	0.955 ± 0.002	0.965 ± 0.002
m1 = 0.045	0.956 ± 0.002	0.956 ± 0.002	0.96 ± 0.002	0.959 ± 0.002
m1 = 0.0652	0.952 ± 0.002	0.926 ± 0.004	0.937 ± 0.003	0.92 ± 0.004
m1 = 0.0855	0.862 ± 0.007	0.879 ± 0.006	0.892 ± 0.005	0.9 ± 0.005
m1 = 0.1058	0.854 ± 0.007	0.872 ± 0.006	0.887 ± 0.006	0.883 ± 0.006
m1 = 0.1629	0.825 ± 0.009	0.823 ± 0.009	0.826 ± 0.009	0.839 ± 0.008
m1 = 0.2108	0.804 ± 0.01	0.787 ± 0.011	0.802 ± 0.01	0.797 ± 0.01
m1 = 0.2695	0.749 ± 0.013	0.766 ± 0.012	0.766 ± 0.012	0.772 ± 0.011
m1 = 0.3284	0.699 ± 0.015	0.708 ± 0.015	0.748 ± 0.013	0.761 ± 0.012
m1 = 0.4307	0.677 ± 0.016	0.685 ± 0.016	0.693 ± 0.015	0.726 ± 0.014
m1 = 0.533	0.648 ± 0.018	0.666 ± 0.017	0.673 ± 0.016	0.685 ± 0.016
m1 = 0.6375	0.619 ± 0.019	0.622 ± 0.019	0.634 ± 0.018	0.647 ± 0.018
m1 = 0.7233	0.575 ± 0.021	0.587 ± 0.021	0.61 ± 0.02	0.632 ± 0.018
m1 = 0.9322	0.523 ± 0.024	0.545 ± 0.023	0.564 ± 0.022	0.589 ± 0.021
m1 = 1.292	0.462 ± 0.027	0.495 ± 0.025	0.508 ± 0.025	0.517 ± 0.024
m1 = 2.066	0.392 ± 0.03	0.396 ± 0.03	0.412 ± 0.029	0.415 ± 0.029

CCCCn1cc[n+](C)c1.COS(=O)(=O)[O-] [1-butyl-3-methylimidazolium methyl sulfate] + O
osmotic coefficient
Conditions	298.15 K	308.15 K	318.15 K	328.15 K
m1 = 0.0132	0.923 ± 0.004	0.937 ± 0.003	0.968 ± 0.002	0.987 ± 0.001
m1 = 0.0225	0.895 ± 0.005	0.921 ± 0.004	0.958 ± 0.002	0.977 ± 0.001
m1 = 0.0328	0.884 ± 0.006	0.897 ± 0.005	0.94 ± 0.01	0.966 ± 0.002
m1 = 0.0434	0.863 ± 0.007	0.885 ± 0.006	0.896 ± 0.005	0.959 ± 0.002
m1 = 0.0634	0.837 ± 0.008	0.872 ± 0.006	0.882 ± 0.006	0.896 ± 0.005
m1 = 0.078	0.821 ± 0.009	0.836 ± 0.008	0.877 ± 0.006	0.887 ± 0.006
m1 = 0.1205	0.809 ± 0.01	0.813 ± 0.009	0.839 ± 0.008	0.874 ± 0.006
m1 = 0.157	0.791 ± 0.01	0.809 ± 0.01	0.839 ± 0.008	0.858 ± 0.007
m1 = 0.1944	0.78 ± 0.011	0.802 ± 0.01	0.814 ± 0.009	0.857 ± 0.007
m1 = 0.2801	0.767 ± 0.012	0.779 ± 0.011	0.802 ± 0.01	0.84 ± 0.008
m1 = 0.3552	0.741 ± 0.013	0.758 ± 0.012	0.775 ± 0.011	0.81 ± 0.01
m1 = 0.4687	0.721 ± 0.014	0.749 ± 0.013	0.762 ± 0.012	0.8 ± 0.01
m1 = 0.7057	0.71 ± 0.015	0.74 ± 0.013	0.756 ± 0.012	0.786 ± 0.011
m1 = 0.9552	0.698 ± 0.015	0.716 ± 0.014	0.732 ± 0.013	0.76 ± 0.01
m1 = 1.44	0.692 ± 0.015	0.708 ± 0.015	0.73 ± 0.014	0.752 ± 0.012
m1 = 2.177	0.693 ± 0.015	0.7 ± 0.015	0.726 ± 0.014	0.743 ± 0.013
